Among the data in patent US20240343704A1, “HALO-SUBSTITUTED AMINO PYRIDINE COMPOUNDS AS INHIBITORS OF THE HAEMATOPOIETIC PROGENITOR KINASE 1 (HPK1)” (priority 2021, published 2024) are IC50 values, retold here.

The assay concerns the target T1, Recombinant (1-346) HPK1 (h) (Homo sapiens, UniProt Q92918).
T1 construct: Recombinant (1-346) HPK1 (h) is incubated with 8 mM MOPS pH 7.0
T1 sequence (Q92918 1-346): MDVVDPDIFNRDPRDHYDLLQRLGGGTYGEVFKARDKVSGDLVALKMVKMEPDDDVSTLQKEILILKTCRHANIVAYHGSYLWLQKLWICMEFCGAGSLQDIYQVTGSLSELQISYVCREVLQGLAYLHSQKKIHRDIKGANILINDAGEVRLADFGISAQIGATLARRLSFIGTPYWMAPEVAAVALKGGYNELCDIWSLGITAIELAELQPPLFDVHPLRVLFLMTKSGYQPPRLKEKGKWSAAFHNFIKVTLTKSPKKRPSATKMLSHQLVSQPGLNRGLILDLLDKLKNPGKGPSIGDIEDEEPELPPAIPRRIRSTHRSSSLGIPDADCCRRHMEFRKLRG
The assay can be described thus: HPK1 Human STE Kinase Enzymatic Radiometric Assay. Type of assay: biochemical. Particulars: read-out: HPK1 IC50 nM Range*. As to the method:
A stock solution of 10 mM of test compound is prepared in DMSO. The compound plate was prepared by 3-fold and 9-point serial dilutions. […] The reaction is initiated by The addition of the Mg/ATP mix. After incubation for 40 minutes at RT, the reaction is stopped by the addition of phosphoric acid to a concentration of 0.5%.
Take `Cc1cc2cc(-c3cc(-c4ccc(N5CCOCC5)c(CN(C)C)c4)c(F)nc3N)cc(F)c2c(=O)[nH]1` [I-505, 6-(2-amino-5-(3-((dimethylamino)methyl)-4-morpholinophenyl)-6-fluoropyridin-3-yl)-8-fluoro-3-methylisoquinolin-1(2H)-one]: the IC50 lay within 11 to 100 nM.
As to `Nc1nc(F)c(-c2ccc(N3CCOCC3)c(F)c2)cc1-c1cc(F)c2c(c1)CCNC2=O` [I-361, 6-(2-amino-6-fluoro-5-(3-fluoro-4-morpholinophenyl)pyridin-3-yl)-8-fluoro-3,4-dihydroisoquinolin-1(2H)-one], the IC50 fell in the range of 0.1 to 10 nM.
With `Nc1nc(F)c(-c2ccc(N3CCOCC3)c(CN3CCC3)c2)cc1-c1ccc2c(c1)CCNC2=O` [I-549, 6-(2-amino-5-(3-(azetidin-1-ylmethyl)-4-morpholinophenyl)-6-fluoropyridin-3-yl)-3,4-dihydroisoquinolin-1(2H)-one], the IC50 lay within 11 to 100 nM.
Take `Nc1nc(F)c(-c2ccc(N3CCN(CCC(F)F)CC3)cc2)cc1-c1cc2c(cc1F)C(=O)NCC2` [I-477, 6-(2-amino-5-(4-(4-(3,3-difluoropropyl)piperazin-1-yl)phenyl)-6-fluoropyridin-3-yl)-7-fluoro-3,4-dihydroisoquinolin-1(2H)-one]: the IC50 lay within 0.1 to 10 nM.
`COC1CCN(Cc2cc(-c3cc(-c4cc5c(cc4F)C(=O)NCC5)c(N)nc3F)ccc2N2CCSCC2)CC1` [I-513, 6-(2-amino-6-fluoro-5-(3-((4-methoxypiperidin-1-yl)methyl)-4-thiomorpholinophenyl)pyridin-3-yl)-7-fluoro-3,4-dihydroisoquinolin-1(2H)-one]: the IC50 was 11 to 100 nM.
As for `CN(C)Cc1cccc(-c2cc(-c3ccc4c(c3)CCNC4=O)c(N)nc2F)c1` [I-594, 6-(2-amino-5-(3-((dimethylamino)methyl)phenyl)-6-fluoropyridin-3-yl)-3,4-dihydroisoquinolin-1(2H)-one], the IC50 lay in the range of 11 to 100 nM.
The value for `Nc1nc(F)c(-c2ccc(C3=CCOCC3)cc2C2CNC(=O)C2)cc1-c1cc2c(cc1F)C(=O)NCC2` (stereo not shown) [I-478, 6-(2-amino-5-(4-(3,6-dihydro-2H-pyran-4-yl)-2-(5-oxopyrrolidin-3-yl)phenyl)-6-fluoropyridin-3-yl)-7-fluoro-3,4-dihydroisoquinolin-1(2H)-one] was over 1000 nM; that for `COCCN(C)Cc1cc(-c2cc(-c3cc4c(cc3F)C(=O)NCC4)c(N)nc2F)ccc1N1CCOCC1` [I-554, 6-(2-amino-6-fluoro-5-(3-(((2-methoxyethyl)(methyl)amino)methyl)-4-morpholinophenyl)pyridin-3-yl)-7-fluoro-3,4-dihydroisoquinolin-1(2H)-one] was 11 to 100 nM; that for `CN(C)Cc1cc(-c2cc(-c3ccc4c(c3)CCNC4=O)c(N)nc2F)ccc1OCC(F)F` [I-555, 6-(2-amino-5-(4-(2,2-difluoroethoxy)-3-((dimethylamino)methyl)phenyl)-6-fluoropyridin-3-yl)-3,4-dihydroisoquinolin-1(2H)-one] was 11 to 100 nM.
The value for `CC(c1cc(-c2cc(-c3ccc4c(c3)CCNC4=O)c(N)nc2F)ccc1O)N(C)C` (stereo not shown) [I-624, 6-(2-amino-5-(3-(1-(dimethylamino)ethyl)-4-hydroxyphenyl)-6-fluoropyridin-3-yl)-3,4-dihydroisoquinolin-1(2H)-one] was 11 to 100 nM.
As for `Nc1nc(F)c(-c2ccc(N3CCN(CCC4CC4(F)F)CC3)cc2)cc1-c1ccc2c(c1)CCNC2=O` (stereo not shown) [I-644, 6-(2-amino-5-(4-(4-(2-(2,2-difluorocyclopropyl)ethyl)piperazin-1-yl)phenyl)-6-fluoropyridin-3-yl)-3,4-dihydroisoquinolin-1(2H)-one], the IC50 fell in the range of 0.1 to 10 nM.
The same measure for `CO[C@@H]1CCN(Cc2cc(-c3cc(-c4ccc5c(c4)CCNC5=O)c(N)nc3F)ccc2N2CCOCC2)C1` [I-563, (R)-6-(2-amino-6-fluoro-5-(3-((3-methoxypyrrolidin-1-yl)methyl)-4-morpholinophenyl)pyridin-3-yl)-3,4-dihydroisoquinolin-1(2H)-one]: 11 to 100 nM.
As for `CNc1nc2cc(-c3cc(-c4ccc(N5CCN(C(C)C)CC5)cc4)c(F)nc3N)ccc2c(=O)[nH]1` [I-421, 7-(2-amino-6-fluoro-5-(4-(4-isopropylpiperazin-1-yl)phenyl)pyridin-3-yl)-2-(methylamino)quinazolin-4(3H)-one], the IC50 lay in the range of 11 to 100 nM.
As to `CCN(C)Cc1nc(-c2cc(-c3cc4c(cc3F)C(=O)NCC4)c(N)nc2F)ccc1N1CCOCC1` [I-581, 6-(6′-amino-6-((ethyl(methyl)amino)methyl)-2′-fluoro-5-morpholino-[2,3′-bipyridin]-5′-yl)-7-fluoro-3,4-dihydroisoquinolin-1(2H)-one], the IC50 lay within 0.1 to 10 nM.
On to `CO[C@@H]1CCN(Cc2cc(-c3cc(-c4cc5c(cc4F)C(=O)NCC5)c(N)nc3F)ccc2N2CCOCC2)C1` [I-564, (R)-6-(2-amino-6-fluoro-5-(3-((3-methoxypyrrolidin-1-yl)methyl)-4-morpholinophenyl)pyridin-3-yl)-7-fluoro-3,4-dihydroisoquinolin-1(2H)-one], for which the IC50 was 11 to 100 nM.
The value for `Cc1[nH]c(=O)c2ccc(-c3cc(-c4ccc(N5CCOCC5)c(CN(C)C)c4)c(F)nc3N)cc2c1F` [I-515, 6-(2-amino-5-(3-((dimethylamino)methyl)-4-morpholinophenyl)-6-fluoropyridin-3-yl)-4-fluoro-3-methylisoquinolin-1(2H)-one] was 11 to 100 nM.
The value for `CN1CCc2c(cccc2-c2cc(-c3ccc4c(c3)CCNC4=O)c(N)nc2F)C1` [I-463, 6-(2-amino-6-fluoro-5-(2-methyl-1,2,3,4-tetrahydroisoquinolin-5-yl)pyridin-3-yl)-3,4-dihydroisoquinolin-1(2H)-one] was over 1000 nM.
The value for `CCN(C)Cc1cc(-c2cc(-c3ccc4c(c3)CCNC4=O)c(N)nc2F)ccc1C1CCOCC1` [I-428, 6-(2-amino-5-(3-((ethyl(methyl)amino)methyl)-4-(tetrahydro-2H-pyran-4-yl)phenyl)-6-fluoropyridin-3-yl)-3,4-dihydroisoquinolin-1(2H)-one] was 11 to 100 nM; that for `CCN(C)Cc1c(N2CCOCC2)ccc(-c2cc(-c3cc4c(cc3F)C(=O)NCC4)c(N)nc2F)c1F` [I-611, 6-(2-amino-5-(3-((ethyl(methyl)amino)methyl)-2-fluoro-4-morpholinophenyl)-6-fluoropyridin-3-yl)-7-fluoro-3,4-dihydroisoquinolin-1(2H)-one] was 11 to 100 nM; that for `Cc1[nH]c(=O)c2c(F)cc(-c3cc(-c4ccc(N5CCOCC5)c(CN(C)C)c4)c(F)nc3N)cc2c1F` [I-534, 6-(2-amino-5-(3-((dimethylamino)methyl)-4-morpholinophenyl)-6-fluoropyridin-3-yl)-4,8-difluoro-3-methylisoquinolin-1(2H)-one] was 11 to 100 nM.
Regarding `C[C@@H]1CN(c2ccc(-c3cc(-c4ccc5c(=O)[nH]cc(F)c5c4)c(N)nc3F)cc2)C[C@H](C)N1C` [I-499, 6-(2-amino-6-fluoro-5-(4-((3R,5S)-3,4,5-trimethylpiperazin-1-yl)phenyl)pyridin-3-yl)-4-fluoroisoquinolin-1(2H)-one], the IC50 is 0.1 to 10 nM.
`COc1cc2c(cc1-c1cc(-c3ccc4c(c3)CCNC4=O)c(N)nc1F)CN(C)CC2` [I-438, 6-(2-amino-6-fluoro-5-(6-methoxy-2-methyl-1,2,3,4-tetrahydroisoquinolin-7-yl)pyridin-3-yl)-3,4-dihydroisoquinolin-1(2H)-one]: the half-inhibitory concentration (IC50) is 11 to 100 nM.
On to `COc1nc2cc(-c3cc(-c4ccc(N5CCN(C(C)C)CC5)cc4)c(F)nc3N)ccc2c(=O)[nH]1` [I-419, 7-(2-amino-6-fluoro-5-(4-(4-isopropylpiperazin-1-yl)phenyl)pyridin-3-yl)-2-methoxyquinazolin-4(3H)-one], for which the IC50 was 11 to 100 nM.
As to `CC(C)N1CCN(c2ccc(-c3cc(-c4cc(F)c5c(c4)CNC5=O)c(N)nc3F)cc2)CC1` [I-637, 5-(2-amino-6-fluoro-5-(4-(4-isopropylpiperazin-1-yl)phenyl)pyridin-3-yl)-7-fluoroisoindolin-1-one], the IC50 lay in the range of 11 to 100 nM.
`CN(C)Cc1cc(-c2cc(-c3ccc4c(c3)CCNC4=O)c(N)nc2F)ccc1F` [I-617, 6-(2-amino-5-(3-((dimethylamino)methyl)-4-fluorophenyl)-6-fluoropyridin-3-yl)-3,4-dihydroisoquinolin-1(2H)-one]: the IC50 was in the range of 11 to 100 nM.
As to `CN(C)Cc1cc(-c2cc(-c3ccc4c(=O)[nH]ccc4c3)c(N)nc2F)ccc1N1CCN(CCCC(F)F)CC1` [I-453, 6-(2-amino-5-(4-(4-(4,4-difluorobutyl)piperazin-1-yl)-3-((dimethylamino)methyl)phenyl)-6-fluoropyridin-3-yl)isoquinolin-1(2H)-one], the IC50 was 0.1 to 10 nM.
The same measure for `COc1ccc(-c2cc(-c3ccc4c(c3)CCNC4=O)c(N)nc2F)cc1CN1CC(OC)C1` [I-516, 6-(2-amino-6-fluoro-5-(4-methoxy-3-((3-methoxyazetidin-1-yl)methyl)phenyl)pyridin-3-yl)-3,4-dihydroisoquinolin-1(2H)-one]: 11 to 100 nM; for `CN1CCC[C@H]1c1cccc(-c2cc(-c3cc4c(cc3F)C(=O)NCC4)c(N)nc2F)c1` [I-444, (S)-6-(2-amino-6-fluoro-5-(3-(1-methylpyrrolidin-2-yl)phenyl)pyridin-3-yl)-7-fluoro-3,4-dihydroisoquinolin-1(2H)-one]: 11 to 100 nM.

One may read the IC50 as the concentration needed to halve the response being measured.
